Like-named read-outs stand apart in the source and are kept apart here.
Tests used:
GST-RORγ LBD (263-509) = molecular target: T1, GST-RORγ LBD (263-509) (Homo sapiens, UniProt P51449); experiment: TR-FRET assay of agonistic activity on RORγ receptor; format: biochemical
T1 construct: GST-RORγ LBD ((263-509) (produced at ChemPartner))
T1 sequence (P51449 263-509): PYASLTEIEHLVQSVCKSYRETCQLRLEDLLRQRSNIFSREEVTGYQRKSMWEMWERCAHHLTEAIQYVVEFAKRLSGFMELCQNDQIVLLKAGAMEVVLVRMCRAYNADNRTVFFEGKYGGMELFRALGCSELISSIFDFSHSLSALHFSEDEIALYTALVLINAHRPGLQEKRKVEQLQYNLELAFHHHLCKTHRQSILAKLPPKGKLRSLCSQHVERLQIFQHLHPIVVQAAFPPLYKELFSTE
Description: A time-resolved fluorescence resonance energy transfer (TR-FRET) assay was used for the compounds of the present disclosure, to determine the agonistic activity of the compounds on the RORγ protein receptor. The agonistic activity is expressed by the concentration for 50% of maximal effect (EC50). The experiment was performed basically with reference to the methods described in ONCOIMMUNOLOGY, 2016, VOL. 5, NO. 12, e1254854.
1. Preparation of RORγ Basal Buffer
A 100 mL basal buffer was prepared, mixed homogeneously and stored for use;
The compounds of the examples shown in the table below were prepared into solutions with DMSO as the solvent, serially diluted at 3-fold dilution to 10 concentrations starting from 10 mM, and added to the corresponding wells of a 384-well plate with each concentration of each compound in duplicate;
a. A 75 nM solution of GST-RORγ LBD ((263-509) (produced at ChemPartner)) and a 4 nM solution of Biotin-SRC1 (Glsbiochem) were prepared with the above basal buffer. The two solutions were 1:1 mixed evenly, and 10 μL of the mixed solution was added into each well of the above 384-well plate. The plate was immediately centrifugated at 1000 rpm for 10 seconds; b. A 1 nM solution of Anti-GST Eu (Cisbio, #61GSTKLA) and a 50 nM solution of SA-APC (Cisbio, […]) were prepared with the above basal buffer. The two solutions were 1:1 mixed evenly, and 10 μL of the mixed solution was added into each well of the above 384-well plate. The plate was immediately centrifugated at 1000 rpm for 10 seconds; c. The resulting 384-well plate was incubated at room temperature for 15 minutes. Data were read on an Envision microplate reader, EC50 values and E max % were calculated.
a. Readings were taken at 665 nm and 615 nm wavelengths respectively on the Envision Microplate Reader, and the ratios between them were normalized. b. Calculation was carried out with the following equation: […]
wherein X is the reading of compounds, Min is the reading of the blank solution, and Max is the reading of 10 μM SRC. c. The concentration-response curve data were fitted by a four-parameter logistic nonlinear regression model, and Emax was the TOP value of the fitted curve.

[1] = molecular target: T2, RORγt (RORγ-LBD chimeric receptor) (Homo sapiens, UniProt P51449); experiment: Luciferase reporter gene assay of RORγt agonistic activity in HEK293T cells; format: cell-based; parameters: Emax: dose or concentration left out as unconfirmed; conditions: for Emax: HEK-293T
T2 construct: host or cells: HEK293T
T2 sequence (P51449 269-508 limits assumed): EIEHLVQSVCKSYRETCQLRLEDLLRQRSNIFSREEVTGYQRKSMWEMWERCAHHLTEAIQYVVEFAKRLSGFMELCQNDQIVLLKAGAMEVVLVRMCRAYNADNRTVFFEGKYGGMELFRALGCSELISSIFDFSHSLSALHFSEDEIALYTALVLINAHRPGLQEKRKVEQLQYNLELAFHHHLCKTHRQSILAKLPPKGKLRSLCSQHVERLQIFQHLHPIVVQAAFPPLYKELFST
Description: This assay was basically carried out according to the method described in the literature ONCOIMMUNOLOGY, 2016, VOL. 5, NO. 12, e1254854.
The RORγ-LBD coding sequence was inserted into pBIND plasmid (Promega, E1581). This expression vector and a reporter vector (pGL4.35 carrying a stably integrated luciferase reporter gene driven by GAL4 promoter) were co-expressed in HEK293T host cells. When the agonist binds to the corresponding chimeric receptor, the chimeric receptor binds to the GAL4 binding site on the reporter gene carrier and stimulates reporter gene expression. The agonistic activity of the compound on RORγ was determined according to the intensity of the chemiluminescence signal.
1.1 All test compounds were serially diluted at 3-fold dilution with DMSO, with 10 serial dilutions starting from 10 mM; LIT-00093 solution was prepared similarly. […] 1.4 The compound plate was sealed and shaken for 5 min.
Cells were cultured according to ATCC standard operation, and 6*10^6 HEK293T cells were seeded into 100 mm cell culture dishes, cultured overnight in a 37° C., 5% CO2 incubator, and then transfected. Compounds of corresponding concentrations were added for treatment, and the Steady-Glo™ kit (Lot E 2520) was used for further detection.
Chemiluminescence values were detected with Envision 2104; EC50 values were calculated.
% Activity was calculated with the following equation: […]
RLU: […] R L Upositive: average value of positive control R L Uvehicle: average value of negative control
The log values of the compound concentration and % Activity were fitted using Graphad 8.0, to calculate EC50s of the compounds.

[2] = Metabolic stability in human liver microsomes; format: in vitro ADME; conditions: for microsomal CLint: 0.5 mg protein/mL
Description: (§1) According to standard methods of in vitro metabolic stability studies in the art, eg., the methods described in Kerns, Edward H. and Di Li (2008). Drug-like Properties: Concepts, Structure Design and Methods: from ADME to Toxicity Optimization. San Diego: Academic Press; Di, Li et al., Optimization of a Higher Throughput Microsomal Stability Screening Assay for Profiling Drug Discovery Candidates, J. Biomol. Screen. 2003, The method described in 8(4), 453, the liver microsomal metabolic stability test of the compounds of the present disclosure was carried out analogously as follows.
(§2) The incubation system contained 0.5 mg protein/mL microsomes, cofactors, and PBS, was pre-incubated at 37° C. for 3 min, and then added the substrate (i.e., the test compounds) to initiate the reaction. Samples were taken at 0, 1, 5, 10, 15, 20, 30 and 60 min from the start of the reaction, and an appropriate terminator was added to terminate the reaction.
(§3) The terminator was an ice acetonitrile solution containing 100 ng/mL tolbutamide and 100 ng/mL labetalol.
(§4) Sample treatment (n=3): each appropriate sample was added, vortexed and centrifuged at high speed. The supernatants were collected, and the substrate was detected by HPLC-MS/MS. The peak area at the 0 min was taken as 100%. The peak areas at other time points were converted to percentage of the remaining amount. The natural logarithms of the percentage of remaining amount at each time point was plotted against the incubation time, and the slope (−k) was calculated by linear regression. Then, Clint (uL/min/mg) and half-life (T½, min) of the compounds were calculated following the equation of the inherent clearance rate (Clint)=(k* volume of incubation solution)/mass of liver microsomes.

[3] = Metabolic stability in mouse liver microsomes; format: in vitro ADME, CD-1 mice; conditions: for half-life: CD-1; for microsomal CLint: CD-1, 0.5 mg protein/mL
Description: as §1, §2, §3, §4

human PBMC (Th17 cells) = experiment: Th17 differentiation and IL-17 secretion in human PBMC; format: cell-based; conditions: IL-17 ELISA after 48 hours; for Emax: maximum activation rate
Description: Test procedure: PBMC cells were first thawed and plated, and then stimulated with stimulating factors (anti-hCD28: 5 μg/mL; rhTGF-β1: 5 ng/mL; rhIL-6: 20 ng/mL; rhIL-23: 10 ng/Ml) to differentiate to Th17, while adding different concentrations of compounds. All test compounds were serially diluted at 3-fold dilution with DMSO, with 8 serial dilutions starting from the maximum concentration 3 μM. The supermatants were collected after 48 hours for IL-17 ELISA detection, and compared with the solvent group, to determine the activation rate of the compounds on Th17 cells to secrete IL-17. EC50 values were fitted with Graphad8.0, and the TOP values fitted by the software was Emax %.

[4] = Pharmacokinetic (PK) assay in mice; format: in vivo; conditions: CD-1 mice; for AUC(0-t) / Cmax / half-life / Vd / bioavailability: mouse, plasma; for Vd: values marked *, read-out: Vss; for bioavailability: Po 5 mg/kg vs IV 1 mg/kg
Description: The PK of each compound was determined as follows: 6 CD-1 mice (obtained from Shanghai Lingchang Biotechnology Co., Ltd.) were divided into two groups, 3 mice in each group. One group was administered intravenously at a dose of 1 mg/kg, and the vehicle was 5% DMSO/40% PEG400/55% (20% 3-CD); one group was administered by oral gavage at a dose of 5 mg/kg, and the vehicle was DMSO/1% methylcellulose (1:99). Blood samples were collected from saphenous vein of lower leg in each group at 0, 0.083, 0.25, 0.5, 1, 2, 4, 6, 8 and 24 h after administration. Approximately 40 μL of the blood samples were collected into anticoagulant tubes containing EDTA-K2. Immediately after collection, the tubes were inverted at least 5 times to ensure uniform mixing, and then placed on ice. The blood samples collected at each time point were centrifuged at 4° C., 8000 rpm for 5 minutes to obtain plasma. Another 1.5 mL centrifuge tube was marked with the compound name, animal number, and time point, and the plasma was transferred to this tube. The plasma was stored at −80° C. until analysis.
Compound concentrations in plasma were determined by UPLC-MS/MS method, and the pharmacokinetic parameters were calculated by Phoenix WinNolin 6.4 pharmacokinetic software on the obtained data.

[5] = HEK293T, GAL4 luciferase reporter, read-out: EC50

| EC50 [1, 5] [nM] | half-life [2] [h] | microsomal CLint [2] [µL/min/mg] | % Remaining (T = 60 min) [2] [%] | % Remaining (T = 60 min) [3] [%] | half-life [3] [h] | AUC(0-t) ([4]; IV 1 mg/kg) [ng·h/mL] | Cmax ([4]; IV 1 mg/kg) [ng/mL] | half-life ([4]; IV 1 mg/kg) [h] | Vd ([4]; IV 1 mg/kg) [L/kg] | bioavailability [4] [%] | AUC(0-t) ([4]; Po 5 mg/kg) [ng·h/mL] | Cmax ([4]; Po 5 mg/kg) [ng/mL] | half-life ([4]; Po 5 mg/kg) [h] | Structure (SMILES) | Emax [1] [%] | EC50 (human PBMC (Th17 cells)) [nM] | Emax (human PBMC (Th17 cells)) [%] | microsomal CLint [3] [µL/min/mg] | also measured |
| --- | --- | --- | --- | --- | --- | --- | --- | --- | --- | --- | --- | --- | --- | --- | --- | --- | --- | --- | --- |
| > 3000 | > 2.42 | < 9.6 | 107.4 | 71 | 2.11 |  |  |  |  |  |  |  |  | CCS(=O)(=O)c1ccc(-c2c(Cl)cc(NCC(C(=O)O)c3ccc(S(=O)(=O)CC)cc3)cc2Cl)cc1 (centres unmarked) [Example 12-1, 3-(2,6-Dichloro-4′-(ethylsulfonyl)-[1,1′-biphenyl]-4-amino)-2-(4-(ethylsulfonyl)phenyl)propionic acid] |  |  |  |  | EC50 (GST-RORγ LBD (263-509); TR-FRET, GST-RORγ LBD with Biotin-SRC1): 6.8 nM; Emax (GST-RORγ LBD (263-509); maximum activation rate, TOP of fitted curve): 186% |
| 202 | 1.3 | 17.8 | 58.7 | 82.60 | > 2.42 | 2300 | 1440 | 1.23 | 0.71 | 40 | 4240 | 1060 | 2.32 | CCS(=O)(=O)c1ccc(C(COC)C(=O)Nc2cc(Cl)c(-c3ccc(S(C)(=O)=O)cc3)c(Cl)c2)cc1 (centres unmarked) [Example 15, N-(2,6-Dichloro-4′-(methylsulfonyl)-[1,1′-biphenyl]-4-yl)-2-(4-(ethylsulfonyl)phenyl)-3-methoxypropionamide] | 79.5 | 45.1 | 197 | < 9.6 |  |
| 123 | 1.78 | 13 | 60 | 23.10 | 0.487 | 647 | 932 | 0.63 | 1.09 | 29.7 | 924 | 419 | 1.51 | CCS(=O)(=O)c1ccc(-c2c(Cl)cc(NC(=O)C(COC)c3ccc(S(C)(=O)=O)cc3)cc2Cl)cc1 (centres unmarked) [Example 19, N-(2,6-Dichloro-4′-(ethylsulfonyl)-[1,1′-biphenyl]-4-yl)-3-methoxy-2-(4-(methylsulfonyl)phenyl)propionamide] | 91.4 | 32.1 | 232 | 47.4 | CL_obs ([4]; IV 1 mg/kg, values marked **): 26.0** mL/min/kg |

| Structure (SMILES) | EC50 [1, 5] [nM] | half-life [2] [h] | microsomal CLint [2] [µL/min/mg] | % Remaining (T = 60 min) [2] [%] | % Remaining (T = 60 min) [3] [%] | half-life [3] [h] | AUC(0-t) ([4]; IV 1 mg/kg) [ng·h/mL] | Cmax ([4]; IV 1 mg/kg) [ng/mL] | half-life ([4]; IV 1 mg/kg) [h] | Vd ([4]; IV 1 mg/kg) [L/kg] | bioavailability [4] [%] | AUC(0-t) ([4]; Po 5 mg/kg) [ng·h/mL] | Cmax ([4]; Po 5 mg/kg) [ng/mL] | half-life ([4]; Po 5 mg/kg) [h] | Emax [1] [%] | EC50 (human PBMC (Th17 cells)) [nM] | Emax (human PBMC (Th17 cells)) [%] | microsomal CLint [3] [µL/min/mg] | also measured |
| --- | --- | --- | --- | --- | --- | --- | --- | --- | --- | --- | --- | --- | --- | --- | --- | --- | --- | --- | --- |
| CS(=O)(=O)c1ccc(-c2c(Cl)cc(NC(=O)Cc3ccc(S(=O)(=O)CC4CC4)cc3)cc2Cl)cc1 [Example 17, 2-(4-((Cyclopropylmethyl)sulfonyl)phenyl)-N-(2,6-dichloro-4′-(methylsulfonyl)-[1,1′-biphenyl]-4-yl)acetamide] |  | 0.055 | 415 | 0 | 15.30 | 0.377 |  |  |  |  |  |  |  |  | 33.9 | 113 | 295 | 61.2 | EC50 [1]: 25 nM |
| COCC(C(=O)Nc1cc(Cl)c(-c2ccc(S(C)(=O)=O)cc2)c(Cl)c1)c1ccc(S(=O)(=O)CC2CC2)cc1 (centres unmarked) [Example 18, 2-(4-((Cyclopropylmethyl)sulfonyl)phenyl)-N-(2,6-dichloro-4′-(methylsulfonyl)-[1,1′-biphenyl]-4-yl)-3-methoxypropionamide] | 784 | 0.192 | 121 | 2 | 15.10 | 0.402 |  |  |  |  |  |  |  |  | 137 | 29.4 | 193 | 57.6 |  |

— patent US20220402867A1, “SULFO-SUBSTITUTED BIARYL COMPOUND OR SALT THEREOF, PREPARATION METHOD THEREFOR, AND USE THEREOF” (Shanghai Litedd Co., Ltd., priority 2019, published 2022)
